Assay results as given in patent US8916681B2, “Compound, use and method” (Medical Research Council, priority 2007, dated 2014).
Non-standard residues stand in square brackets, D forms with d. Residues, ends and D or L forms follow the SMILES beside them.

Target: GPR54 (Homo sapiens, UniProt Q969F8)
Test: Inositol phosphate (IP) antagonism assay: inhibition of 10 nM kisspeptin-10 stimulation of IP in CHO/gpr-54 cells
Type: cell-based
Set-up: G. Vassart, Univ; Brussels
Settings: CHO cells, 10 nM kisspeptin-10; for IC50: unit inferred, given in M
Method: Inositol-3-phoshate Antagonistic Assay—Cell monolayers had 0.5 mls HEPES modified DMEM supplemented with […] for 30 mins at 37° C. to block IP3 breakdown. Cells were then stimulated with 0.25 mls 10 nM Kisspeptin-10 plus 0.25 mls of 10 nM Kisspeptin-10 or analogues (10 pM-10 uM) diluted at 1:1000 in the above media for 1 hr at 37° C., then in 10 mM Formic acid at 4° C. for 1 hr to lyse cells. Lysate was then transferred to plastic tubes containing 0.5 mls Dowex resin to bind the radioactive IP3 and the resin was then washed with 1 ml H2O. The resin was then washed with 60 mM NH4 formate/5 mM Sodium tetraborate followed by 1M NH4 formate/0.1M Formic acid to release the bound radiation. Then 800 μls of the radioactive solution were transferred to scintillation vials containing 2.5 mls scintillation fluid and radioactivity counted on a Beta counter for 60 seconds.
Chinese hamster ovary (CHO) cells stably-expressing the human gpr-54 receptor (CHO/gpr-54) were obtained from Prof. G. Vassart, Univ. Brussels. The cells were maintained in Dulbecco's modified Eagle's medium (DMEM; Sigma) supplemented with 10% fetal calf serum, 2% glutamine and 1% penicillin (10,000 units/ml)/streptomycin ([…]) at 37° C. in a humidified 5% CO2 atmosphere.
Experiments were repeated 3-5 times. IP production was plotted as mean values±SEM and analyzed using a Student's t-Test ([…]).

Sequence of GPR54 (Q969F8 whole entry): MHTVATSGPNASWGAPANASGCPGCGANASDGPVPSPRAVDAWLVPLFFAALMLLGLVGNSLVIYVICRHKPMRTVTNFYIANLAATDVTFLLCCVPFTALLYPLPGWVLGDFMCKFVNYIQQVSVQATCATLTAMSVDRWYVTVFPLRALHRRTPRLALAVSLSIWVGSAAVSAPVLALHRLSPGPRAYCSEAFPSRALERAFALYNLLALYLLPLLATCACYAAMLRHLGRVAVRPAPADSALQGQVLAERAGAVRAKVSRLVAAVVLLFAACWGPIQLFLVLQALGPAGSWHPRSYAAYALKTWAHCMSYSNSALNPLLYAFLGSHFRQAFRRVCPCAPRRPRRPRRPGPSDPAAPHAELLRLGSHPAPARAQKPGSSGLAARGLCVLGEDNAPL

SMILES	Inhibition of IP stimulation by 10 nM Agonist: % Inhibition of Max [%]	IC50 [nM]
CC(=O)N[C@@H](CC(N)=O)C(=O)N[C@@H](CO)C(=O)N[C@@H](Cc1ccccc1)C(=O)NCC(=O)N[C@@H](CC(C)C)C(=O)N[C@@H](CCCNC(=N)N)C(=O)N[C@@H](Cc1ccccc1)C(N)=O [Peptide 186] (Ac-NSFGLRF-NH2)	70	
CC(C)C[C@H](NC(=O)CNC(=O)[C@H](Cc1ccccc1)NC(=O)[C@H](CO)NC(=O)[C@H](CC(N)=O)NC(=O)[C@H](Cc1c[nH]c2ccccc12)NC(=O)[C@H](CC(N)=O)NC(=O)[C@@H](N)Cc1ccc(O)cc1)C(=O)N[C@@H](CCCNC(=N)N)C(=O)N[C@@H](Cc1c[nH]c2ccccc12)C(N)=O [Peptide 187] (H-YNWNSFGLRW-NH2)	36	
CC(=O)N[C@@H](Cc1ccccc1)C(=O)NCC(=O)N[C@@H](CC(C)C)C(=O)N[C@@H](CCCNC(=N)N)C(=O)N[C@@H](Cc1ccccc1)C(N)=O [Peptide 188] (Ac-FGLRF-NH2)	74	
CC(=O)N[C@@H](Cc1ccccc1)C(=O)NCC(=O)N[C@@H](CC(C)C)C(=O)N[C@@H](CCCNC(=N)N)C(=O)N[C@@H](Cc1c[nH]c2ccccc12)C(N)=O [Peptide 189]	94	
CC(=O)N[C@@H](Cc1ccccc1)C(=O)NCC(=O)N[C@H](Cc1ccccc1)C(=O)N[C@@H](CCCNC(=N)N)C(=O)N[C@@H](Cc1c[nH]c2ccccc12)C(N)=O [Peptide 190] (Ac-FG[dF]RW-NH2)	71	10
CC(=O)N[C@@H](Cc1ccccc1)C(=O)NCC(=O)N[C@H](CC(C)C)C(=O)N[C@@H](CCCNC(=N)N)C(=O)N[C@@H](Cc1c[nH]c2ccccc12)C(N)=O [Peptide 191]	79	
CC(=O)N[C@@H](Cc1ccccc1)C(=O)NCC(=O)N[C@@H](CC(C)C)C(=O)N[C@H](CCCNC(=N)N)C(=O)N[C@@H](Cc1c[nH]c2ccccc12)C(N)=O [Peptide 200]	63	300
CC(=O)N[C@@H](Cc1ccccc1)C(=O)NCC(=O)N[C@@H](C)C(=O)N[C@@H](CCCNC(=N)N)C(=O)N[C@@H](Cc1c[nH]c2ccccc12)C(N)=O [Peptide 201] (Ac-FGARW-NH2)	69	7
CC(=O)N[C@@H](C)C(=O)NCC(=O)N[C@@H](CC(C)C)C(=O)N[C@@H](CCCNC(=N)N)C(=O)N[C@@H](Cc1c[nH]c2ccccc12)C(N)=O [Peptide 202] (Ac-AGLRW-NH2)	64	10
CC(=O)N[C@H](Cc1ccccc1)C(=O)N[C@@H](Cc1c[nH]c2ccccc12)C(=O)N[C@@H](CC(C)C)C(=O)N[C@@H](CCCNC(=N)N)C(=O)N[C@@H](Cc1c[nH]c2ccccc12)C(N)=O [Peptide 203] (Ac-[dF]WLRW-NH2)	71	0.1
CC(=O)N[C@@H](Cc1ccccc1)C(=O)NCC(=O)N[C@H](Cc1c[nH]c2ccccc12)C(=O)N[C@@H](CCCNC(=N)N)C(=O)N[C@@H](Cc1ccccc1)C(N)=O [Peptide 206] (Ac-FG[dW]RF-NH2)	68	10
CC(C)C[C@H](NC(=O)CNC(=O)[C@H](Cc1ccccc1)NC(=O)CNC(=O)[C@H](CC(N)=O)NC(=O)[C@H](Cc1c[nH]c2ccccc12)NC(=O)[C@H](CC(N)=O)NC(=O)[C@@H](N)Cc1ccc(O)cc1)C(=O)N[C@@H](CCCNC(=N)N)C(=O)N[C@@H](Cc1ccccc1)C(N)=O [Peptide 208] (H-YNWNGFGLRF-NH2)	55	1000

Continued, values first:

Inhibition of IP stimulation by 10 nM Agonist: % Inhibition of Max [%]	IC50 [nM]	SMILES
61	100	CC(C)C[C@@H](NC(=O)CNC(=O)[C@H](Cc1ccccc1)NC(=O)CNC(=O)[C@H](CC(N)=O)NC(=O)[C@H](Cc1c[nH]c2ccccc12)NC(=O)[C@H](CC(N)=O)NC(=O)[C@@H](N)Cc1ccc(O)cc1)C(=O)N[C@@H](CCCNC(=N)N)C(=O)N[C@@H](Cc1ccccc1)C(N)=O [Peptide 209] (H-YNWNGFG[dL]RF-NH2)
64	< 0.1	N=C(N)NCCC[C@H](NC(=O)[C@@H](Cc1c[nH]c2ccccc12)NC(=O)CNC(=O)[C@H](Cc1ccccc1)NC(=O)CNC(=O)[C@H](CC(N)=O)NC(=O)[C@H](Cc1c[nH]c2ccccc12)NC(=O)[C@H](CC(N)=O)NC(=O)[C@@H](N)Cc1ccc(O)cc1)C(=O)N[C@@H](Cc1ccccc1)C(N)=O [Peptide 210] (H-YNWNGFG[dW]RF-NH2)
73	1000	CC(C)C[C@H](NC(=O)CNC(=O)[C@@H](Cc1ccccc1)NC(=O)CNC(=O)[C@H](CC(N)=O)NC(=O)[C@H](Cc1c[nH]c2ccccc12)NC(=O)[C@H](CC(N)=O)NC(=O)[C@@H](N)Cc1ccc(O)cc1)C(=O)N[C@@H](CCCNC(=N)N)C(=O)N[C@@H](Cc1ccccc1)C(N)=O [Peptide 211] (H-YNWNG[dF]GLRF-NH2)
68	< 0.1	CC(C)C[C@H](NC(=O)CNC(=O)[C@@H](Cc1c[nH]c2ccccc12)NC(=O)CNC(=O)[C@H](CC(N)=O)NC(=O)[C@H](Cc1c[nH]c2ccccc12)NC(=O)[C@H](CC(N)=O)NC(=O)[C@@H](N)Cc1ccc(O)cc1)C(=O)N[C@@H](CCCNC(=N)N)C(=O)N[C@@H](Cc1ccccc1)C(N)=O [Peptide 212] (H-YNWNG[dW]GLRF-NH2)
58	50	CC(=O)N[C@@H](Cc1ccc(O)cc1)C(=O)N[C@@H](CC(N)=O)C(=O)N[C@@H](Cc1c[nH]c2ccccc12)C(=O)N[C@@H](CC(N)=O)C(=O)NCC(=O)N[C@@H](Cc1ccccc1)C(=O)NCC(=O)N[C@H](Cc1c[nH]c2ccccc12)C(=O)N[C@@H](CCCNC(=N)N)C(=O)N[C@@H](Cc1ccccc1)C(N)=O [Peptide 228] (Ac-YNWNGFG[dW]RF-NH2)
68	8000	CC(=O)N[C@@H](Cc1ccc(O)cc1)C(=O)N[C@@H](CC(N)=O)C(=O)N[C@@H](Cc1c[nH]c2ccccc12)C(=O)N[C@@H](CC(N)=O)C(=O)N[C@H](Cc1c[nH]c2ccccc12)C(=O)N[C@@H](Cc1ccccc1)C(=O)NCC(=O)N[C@H](Cc1c[nH]c2ccccc12)C(=O)N[C@@H](CCCNC(=N)N)C(=O)N[C@@H](Cc1ccccc1)C(N)=O [Peptide 229] (Ac-YNWN[dW]FG[dW]RF-NH2)
55	0.1	CC(=O)N[C@@H](Cc1ccc(O)cc1)C(=O)N[C@@H](CC(N)=O)C(=O)N[C@H](Cc1c[nH]c2ccccc12)C(=O)N[C@@H](CC(N)=O)C(=O)NCC(=O)N[C@@H](Cc1ccccc1)C(=O)NCC(=O)N[C@H](Cc1c[nH]c2ccccc12)C(=O)N[C@@H](CCCNC(=N)N)C(=O)N[C@@H](Cc1ccccc1)C(N)=O [Peptide 231] (Ac-YN[dW]NGFG[dW]RF-NH2)
0		CC(=O)N[C@H](Cc1ccc(O)cc1)C(=O)N[C@@H](CC(N)=O)C(=O)N[C@@H](Cc1c[nH]c2ccccc12)C(=O)N[C@@H](CC(N)=O)C(=O)NCC(=O)N[C@@H](Cc1ccccc1)C(=O)NCC(=O)N[C@@H](Cc1c[nH]c2ccccc12)C(=O)N[C@@H](CCCNC(=N)N)C(=O)N[C@@H](Cc1ccccc1)C(N)=O [Peptide 237] (Ac-[dY]NWNGFGWRF-NH2)
0		CC(=O)N[C@H](Cc1ccc(O)cc1)C(=O)N[C@@H](CC(N)=O)C(=O)N[C@@H](Cc1c[nH]c2ccccc12)C(=O)N[C@@H](CC(N)=O)C(=O)N[C@@H](CO)C(=O)N[C@@H](Cc1ccccc1)C(=O)NCC(=O)N[C@H](Cc1c[nH]c2ccccc12)C(=O)N[C@@H](CCCNC(=N)N)C(=O)N[C@@H](Cc1ccccc1)C(N)=O [Peptide 238] (Ac-[dY]NWNSFG[dW]RF-NH2)
0		CC(=O)N[C@H](Cc1ccc(O)cc1)C(=O)N[C@H](CC(N)=O)C(=O)N[C@@H](Cc1c[nH]c2ccccc12)C(=O)N[C@@H](CC(N)=O)C(=O)N[C@@H](CO)C(=O)N[C@@H](Cc1ccccc1)C(=O)NCC(=O)N[C@@H](Cc1c[nH]c2ccccc12)C(=O)N[C@@H](CCCNC(=N)N)C(=O)N[C@@H](Cc1ccccc1)C(N)=O [Peptide 239] (Ac-[dY][dN]WNSFGWRF-NH2)
55	10	CC(=O)N[C@H](Cc1c[nH]c2ccccc12)C(=O)N[C@@H](CC(N)=O)C(=O)N[C@@H](Cc1c[nH]c2ccccc12)C(=O)N[C@@H](CC(N)=O)C(=O)NCC(=O)N[C@@H](Cc1ccccc1)C(=O)NCC(=O)N[C@H](Cc1c[nH]c2ccccc12)C(=O)N[C@@H](CCCNC(=N)N)C(=O)N[C@@H](Cc1ccccc1)C(N)=O [Peptide 243] (Ac-[dW]NWNGFG[dW]RF-NH2)
60	10	CC(=O)N[C@H](Cc1ccccc1)C(=O)N[C@@H](CC(N)=O)C(=O)N[C@@H](Cc1c[nH]c2ccccc12)C(=O)N[C@@H](CC(N)=O)C(=O)NCC(=O)N[C@@H](Cc1ccccc1)C(=O)NCC(=O)N[C@H](Cc1c[nH]c2ccccc12)C(=O)N[C@@H](CCCNC(=N)N)C(=O)N[C@@H](Cc1ccccc1)C(N)=O [Peptide 244] (Ac-[dF]NWNGFG[dW]RF-NH2)
